In US12642870B2, “Compositions and methods for delivery of nucleic acids” (Poseida Therapeutics, Inc., priority 2020, dated 2026):

Columns and labels:
[1] = Physical characterisation of DNA-containing LNPs (DLS, NTA, zeta potential); assay type: physicochemical; settings: nano-pB-EF1a-GFP DNA LNPs: compound/DOPE/Cholesterol/DMG-PEG2000 38.0/50.0/10.0/2.0, lipid:DNA 45:1 (w/w)
Method: LNP compositions of the present disclosure comprising DNA, a nanoplasmid encoding a piggyBac transposon, wherein the piggyBac transposon comprised GFP under control of the EF1a promoter (herein referred to as the nano-pB-EF1a-GFP), and one of COMPOUNDS 1-8 were prepared as described in Example 3 by combining one of COMPOUNDS 1-8, the phospholipid DOPE, the structural lipid cholesterol (Chol) and 1,2-dimyristoyl-sn-glycerol methoxypolyethylene glycol (DMG-PEG2000) in the following percentages in Table 20: […]

[2] = tested on: HEK293T cells; experiment: In vitro LNP delivery of eGFP mRNA to adherent cells; assay type: cell-based; settings: 0.125 μg eGFP mRNA per well, 24 hr, flow cytometry, LNP 41.44/45.85/10.0/2.7, lipid:RNA 40:1
Method: HEK293T cells were seeded in 96 well plates and grown to 70% confluence in DMEM+10% FBS] under a 5% CO2 atmosphere at 37° C. A 0.125 μg amount of 5′-CleanCap-eGFP mRNA (TriLink Biotech) formulated with LNP compositions comprising COMPOUNDS 1-4 as prepared in Example 3 at the following percentages in Table 10 was added to each well.
After incubating for 24 hr, cells were imaged for GFP expression with a Leica fluorescence microscope and then detached from 96 well plate to quantitate expression by flow cytometry.

[3] = tested on: Resting T-cells; experiment: LNP delivery of eGFP mRNA to resting T-cells; assay type: cell-based; settings: eGFP mRNA LNPs 0.4144:0.4585:0.1:0.027, lipid:nucleic acid 40:1, 0.5 ug mRNA per well, 24 hrs
Method: In one experiment, LNPs of the present disclosure comprising one of COMPOUNDS 1-4, DOPE, Cholesterol and DMG-PEG2000 at a molar ratio of 0.4144:0.4585:0.1:0.027 and further comprising Cleancap mRNA encoding eGFP were formed on a NanoAssemblr® (Precision Nanosystems). […] Resting T-cells were treated with varying amounts of the four LNP composition and at 24 hrs, the cells were analyzed to determine the percentage of cells that were viable and that expressed […]. The results of the analysis are shown in Table 12 for a dose of 0.5 ug mRNA per well.

[4] = tested on: Resting T-cells; experiment: LNP delivery of nano-pB-EF1a-GFP DNA to resting T-cells; assay type: cell-based; settings: nano-pB-EF1a-GFP DNA LNPs 0.38:0.5:0.1:0.02, lipid:nucleic acid 45:1, 24 hr
Excerpt: The experiments described in this example used CD4/CD8 positive T-cells isolated from a leukapheresis product from a healthy donor.

[5] = Physical characterisation of mRNA-containing LNPs (DLS, NTA, zeta potential); assay type: physicochemical; settings: Fluc mRNA LNPs: compound/DOPE/Cholesterol/DMG-PEG2000 41.44/45.85/10/2.7, lipid:RNA 40:1 (w/w)
Method: A series of ten multi-component LNP compositions of the present disclosure comprising exemplary compounds of Formula (I) was prepared by combining various percentages of an exemplary compound of Formula (I), the phospholipid DOPE, the structural lipid cholesterol (Chol) and 1,2-dimyristoyl-sn-glycerol methoxypolyethylene glycol (DMG-PEG2000; Avanti Polar Lipids, Alabaster, Alabama, USA).
Individual 25 mg/ml stock solutions were prepared by solubilizing the lipids in 200-proof HPLC-grade ethanol and stock solutions were stored at −80° C. until formulated. At the time of formulation, the lipid stock solutions were briefly allowed to equilibrate to room temp and then placed on a hot plate maintained at a temperature range of 50-55° C.
A 1 mg/mi solution of the desired mRNA to be incorporated into the LNPs was added to 150 mM sodium acetate buffer (pH 5.2) to form a stock solution and kept on ice. The lipid phase was mixed with the aqueous m RNA phase inside a microfluidic chip using a NanoAssemblr® instrument (Precision Nanosystems, Vancouver, BC, Canada) according to the manufacturer's instructions to form LNP compositions comprising encapsulated mRNAs.
The resultant mRNA LNP compositions were then transferred to a Repligen Float-A-Lyzer dialysis device—having a molecular weight cut off (MWCO) of 8-10 kDa (Spectrum Chemical Mfg. Corp, CA, USA) and processed by dialysis against phosphate buffered saline (PBS) (dialysate:dialysis buffer volume at least 1:200 v/v), pH 7.4 overnight at 4° C. (or alternatively room temperature for at least 4 hours), to remove the 25% ethanol and achieve a complete buffer exchange. In some experiments the LNPs were further concentrated by in an Amicon® Ultra-4 centrifugal filter unit, MWCO-30 kDa (Millipore Sigma, USA) spun at ˜4100×g in an ultracentrifuge. The mRNA LNPs were then stored at 4° C. until further use.
A series of multicomponent LNP compositions comprising one of COMPOUNDS 1-8 described in Example 1 and the mRNA encoding flue was prepared according to Example 2 and the physical characteristics of the resulting LNPs were analyzed.
In a separate experiment, LNP compositions of the present disclosure comprising mRNA encoding firefly luciferase (hereafter “Fluc”; TriLink) and COMPOUNDS 1-8 were prepared as described in Example 2 by combining one of COMPOUNDS 1-8, the phospholipid DOPE, the structural lipid cholesterol (Chol) and 1,2-dimyristoyl-sn-glycerol methoxypolyethylene glycol (DMG-PEG2000) in the percentages presented in Table 8: […]

[6] = tested on: BALB/C mice; experiment: In vivo intramuscular LNP delivery of fLuciferase mRNA, bioluminescent imaging; settings: for Ave flux (p/s) / Avg IM flux n = 2: intramuscular 20 μg fLuciferase mRNA; for Ave flux (p/s): LNP COMPOUND 2/DOPE/Cholesterol/DMG-PEG2000 32.411/32.411/32.411/2.77; for Avg IM flux n = 2: right hind limb, BLI at 4 hr, LNP compound/DOPE/Cholesterol/DMG-PEG2000 33.5/32.0/33.5/1.0, lipid:RNA 25:1
Method: (§1) Adult female BALB/C mice (n=2/group) were intramuscularly administered in the right hind limb of each mouse 20 μg of 5′-CleanCap-fLuciferase mRNA (TriLink Biotech) formulated with LNP composition comprising COMPOUND 2 as prepared according to Example 2 in the following percentages shown in Table 16:
The location and extent of luciferase expression in treated and untreated mice were determined at 4 hr and 24 hr by bioluminescent imaging (BLI) of anesthetized mice using an IVIS Lumina in vivo imaging system (Perkin Elmer) according to the manufacturer's instructions. Briefly, mice were anesthetized using isoflurane in oxygen, and placed supine on a heated stage. Mice were then administered D-luciferin (Perkin-Elmer #122799) IP, and BLI was performed.
as §1, with “In another experiment, adult female” for “Adult female”, “comprising one of COMPOUNDS 3-8” for “comprising COMPOUND 2”, “Example 3” for “Example 2”, “Table 18:” for “Table 16:”
The location and extent of luciferase expression in treated and untreated mice were determined at 4 hr by bioluminescent imaging (BLI) of anesthetized mice as described above.

[7] = tested on: HEK293T cells; experiment: In vitro LNP delivery of nano-pB-EF1a-GFP DNA to adherent cells; assay type: cell-based; settings: 0.5 μg nano-pB-EF1a-GFP DNA per well in LNPs, flow cytometry
Method: HEK293T cells were seeded in 96 well plates and grown to 70% confluence in [DMEM+10% FBS] under a 5% CO2 atmosphere at 37° C. A 0.5 μg amount of nano-pB-EF1a-GFP DNA formulated with LNP compositions comprising COMPOUNDS 1, 3 & 4 as prepared in Examples 3 and 8 was added to each well. Following treatment with the LNPs, the cells were imaged for GFP+expression with a Leica fluorescence microscope and then detached from 96 well plate to quantitate expression by flow cytometry.

[8] = tested on: TF1a cells; experiment: Genetic modification of suspension cell line by LNP-delivered nanoplasmid transposon; assay type: cell-based; settings: TF1a cells stably expressing SPB transposase; nanoplasmid transposon LNP 0.38:0.5:0.1:0.02; Day 6, flow cytometry
Method: In general, TF1a cells (a suspension cell line) were engineered to stably express the SPB transposase. Cell were plated at 5e5/ml. LNP comprising a nanoplasmid transposon coding for eGFP under control of the EF1a […] were added to each well at a concentration of […] (0.125 ug total) of DNA per well. Medium was exchanged and cells were split by spinning cells down in a v-bottom plate and resuspending cells in fresh RPMI+10% FBS+2 ug/ml Puromycin media on D4 post LNP addition). Day=6, cells were assessed for GFP expression by epifluorescence microscopy and flow cytometry.
For example, LNP compositions comprising COMPOUND 3 were prepared comprising COMPOUND 3, DOPE, Cholesterol and DMG-PEG2000 at a molar ratio of 0.38:0.5:0.1:0.02 and the nanoplasmid transposon and cells were assessed at Day 6 for GFP expression by epifluorescence microscopy and flow cytometry.

| Diameter (DLS; nm) [1] | Diameter (NTA; nm) [1] | PDI [1] | Zeta Potential (mV) [1] | Diameter (DLS; nm) [5] | Diameter (NTA; nm) [5] | PDI [5] | Total Particles/ml [5] | Zeta Potential (mV) [5] | Structure (SMILES) | % Viable GFP+ [2] | % Viable GFP+ [3] | % Viable GFP+ [4] | Ave flux (p/s) ([6]; Lipid:RNA 25:1, 4 hr) | Ave flux (p/s) ([6]; Lipid:RNA 25:1, 24 hr) | Ave flux (p/s) ([6]; Lipid:RNA 50:1, 4 hr) | Ave flux (p/s) ([6]; Lipid:RNA 50:1, 24 hr) | location of luciferase expression (BLI) ([6]; intramuscular 20 μg fLuciferase mRNA in right hind limb) | % Viable GFP+ [7] | Avg IM flux n = 2 [6] | cells positive for GFP expression [8] |
| --- | --- | --- | --- | --- | --- | --- | --- | --- | --- | --- | --- | --- | --- | --- | --- | --- | --- | --- | --- | --- |
| 80.6 nm | 105.0 nm | 0.221 | −0.02 mV | 79.6 nm | 113.8 nm | 0.259 | 2.97E+10 Particles/ml | −0.19 mV | CC(C)C(CCC1CCC(C(=O)NCCCCCCNC(=O)C2CCC(CCC(SCCN(C)C)C(C)C)C(SCCN(C)C)C2)CC1SCCN(C)C)SCCN(C)C (stereo not shown) [Compound 2] | 17.5% | 5.5% | 4.4% | 4.58E+6 p/s | 3.53E+6 p/s | 9.67E+5 p/s | 8.09E+5 p/s | detected by BLI predominantly at the injection site |  |  |  |
|  |  |  |  |  |  |  |  |  | CC(C)C(CCC1CCC(C(=O)NCCCCCCCCCCCCNC(=O)C2CCC(CCC(SCCN(C)C)C(C)C)C(SCCN(C)C)C2)CC1SCCN(C)C)SCCN(C)C (stereo not shown) [Compound 4] | 90.1% | 2.9% | 2.3% |  |  |  |  |  | ~17.1% | 2.07E+6 |  |
|  |  |  |  |  |  |  |  |  | CC(C)C(CCC(C)C(CCC1CCC(C(=O)NCCCCCCCCCCCCNC(=O)C2CCC(CCC(SCCN(C)C)C(C)CCC(SCCN(C)C)C(C)C)C(SCCN(C)C)C2)CC1SCCN(C)C)SCCN(C)C)SCCN(C)C (stereo not shown) [Compound 3] | 19.4% | 10.9% | 18.0% |  |  |  |  |  | 97.1% | 5.8E+6 | ~9.8% |
